The source of these data is ChEMBL document CHEMBL2412982, “A medicinal chemists' guide to the unique difficulties of lead optimization for tuberculosis” (2013).

The nature of assay [1]: Cmax/MIC in Mycobacterium tuberculosis infected mouse. It counts as functional.
Assay [2] is described as follows: T>MIC in Mycobacterium tuberculosis infected mouse. The format is functional.
The nature of assay [3]: fT>MIC in Mycobacterium tuberculosis infected mouse. It counts as functional.
Assay [4] in a line: AUC/MIC in Mycobacterium tuberculosis infected mouse. The format is functional, Plasma.
Assay [5] is described as follows: fCmax/MIC in Mycobacterium tuberculosis infected mouse. The format is functional.
A short description of assay [6]: fAUC/MIC in Mycobacterium tuberculosis infected mouse. It counts as functional.

For the compound `O=[N+]([O-])c1cn2c(n1)OC[C@@H](OCc1ccc(OC(F)(F)F)cc1)C2` [PRETOMANID], in assay [1], the Ratio is given as 20. Further, the “%T>MIC” value in assay [2] was 58%. In assay [3], the “fT>MIC” value amounted to 21%. In assay [4], this compound showed a RatioAUC/MIC of 166. In assay [5], this compound displayed a fCmax/MIC of 2. In assay [6], this compound yielded a fAUC/MIC of 16.
For `COc1nc2ccc(Br)cc2cc1[C@@H](c1ccccc1)[C@@](O)(CCN(C)C)c1cccc2ccccc12` [BEDAQUILINE], the Ratio in assay [1] was 10. Also, the “%T>MIC” value in assay [2] was 80%. Besides, in assay [3], the “fT>MIC” value was 0%. Besides, the RatioAUC/MIC in assay [4] is recorded as 100. This compound returned a fCmax/MIC in assay [5] of 0.1. The compound further gave a fAUC/MIC in assay [6] of 1.
Consider `NNC(=O)c1ccncc1` [ISONIAZID], for which the Ratio in assay [1] is given as 660. Moreover, the “%T>MIC” value in assay [2] is given as 80%. In addition, the “fT>MIC” value in assay [3] amounted to 60%. In assay [4], the RatioAUC/MIC is recorded as 1300. In assay [5], this compound showed a fCmax/MIC of 400. In addition, the fAUC/MIC in assay [6] is given as 800.
For `CC[C@@H](CO)NCCN[C@@H](CC)CO` [ETHAMBUTOL], the Ratio in assay [1] is recorded as 11. In addition, the “%T>MIC” value in assay [2] came out at 35%. For the same compound, the “fT>MIC” value in assay [3] is on record as 25%. Moreover, in assay [4], the RatioAUC/MIC was 33. The compound further displayed a fCmax/MIC in assay [5] of 8. For the same compound, the fAUC/MIC in assay [6] amounted to 25.
For `CO[C@H]1/C=C/O[C@@]2(C)Oc3c(C)c(O)c4c(O)c(c(/C=N/N5CCN(C)CC5)c(O)c4c3C2=O)NC(=O)/C(C)=C\C=C\[C@H](C)[C@H](O)[C@@H](C)[C@@H](O)[C@@H](C)[C@H](OC(C)=O)[C@@H]1C` [RIFAMPIN], the Ratio in assay [1] is reported as 100. Further, in assay [2], the “%T>MIC” value is reported as 100%. In addition, the “fT>MIC” value in assay [3] is recorded as 100%. Moreover, in assay [4], the RatioAUC/MIC amounted to 1500. The fCmax/MIC in assay [5] worked out at 20. Besides, in assay [6], the fAUC/MIC is reported as 300.
As for `OC(c1cc(C(F)(F)F)nc2c(C(F)(F)F)cccc12)C1CCCCN1` (centres undefined) [MEFLOQUINE], the Ratio in assay [1] was determined as 0.5. Besides, the “%T>MIC” value in assay [2] is reported as 0%. Moreover, the “fT>MIC” value in assay [3] was found to be 0%. The RatioAUC/MIC in assay [4] was determined as 8. Moreover, the fCmax/MIC in assay [5] is on record as 0.1. In addition, the fAUC/MIC in assay [6] turned out to be 1.6.
As for `COc1c(N2C[C@@H]3CCCN[C@@H]3C2)c(F)cc2c(=O)c(C(=O)O)cn(C3CC3)c12` [MOXIFLOXACIN], in assay [1], the Ratio was determined as 17. Moreover, in assay [2], the “%T>MIC” value is given as 100%. Moreover, the “fT>MIC” value in assay [3] amounted to 80%. In assay [4], the RatioAUC/MIC came out at 88. The compound further gave a fCmax/MIC in assay [5] of 10. The same compound had a fAUC/MIC in assay [6] of 53.
As for `CC(C)/N=c1\cc2n(-c3ccc(Cl)cc3)c3ccccc3nc-2cc1Nc1ccc(Cl)cc1` [CLOFAZIMINE], the Ratio in assay [1] came out at 1. In assay [2], the “%T>MIC” value is reported as 0%. Further, the “fT>MIC” value in assay [3] is reported as 0%. Besides, in assay [4], the RatioAUC/MIC is on record as 20. The same compound yielded a fCmax/MIC in assay [5] of 0.02. This compound also registered a fAUC/MIC in assay [6] of less than 1.
Regarding `NC(=O)c1cnccn1` [PYRAZINAMIDE], the Ratio in assay [1] worked out at 25. Also, in assay [2], the “%T>MIC” value stood at 25%. Also, the “fT>MIC” value in assay [3] came out at 19%. This compound had a RatioAUC/MIC in assay [4] of 35. The compound also came in with a fCmax/MIC in assay [5] of 15. In assay [6], this compound gave a fAUC/MIC of 21.
